Measurements published in ChEMBL document CHEMBL3868608, “Discovery of 1,3-diethyl-7-methyl-8-(phenoxymethyl)-xanthine derivatives as novel adenosine A1 and A2A receptor antagonists” (Bioorg Med Chem Lett, 2016).

Legend:
[1] = molecular target: T1, Adenosine receptor A2a (Rattus norvegicus, UniProt P30543); test: Displacement of [3H]NECA from adenosine receptor A2A in Sprague-Dawley rat striatal membranes after 60 mins by liquid scintillation counting; set-up: species or system Striatum, Membrane
T1 sequence (P30543 whole entry): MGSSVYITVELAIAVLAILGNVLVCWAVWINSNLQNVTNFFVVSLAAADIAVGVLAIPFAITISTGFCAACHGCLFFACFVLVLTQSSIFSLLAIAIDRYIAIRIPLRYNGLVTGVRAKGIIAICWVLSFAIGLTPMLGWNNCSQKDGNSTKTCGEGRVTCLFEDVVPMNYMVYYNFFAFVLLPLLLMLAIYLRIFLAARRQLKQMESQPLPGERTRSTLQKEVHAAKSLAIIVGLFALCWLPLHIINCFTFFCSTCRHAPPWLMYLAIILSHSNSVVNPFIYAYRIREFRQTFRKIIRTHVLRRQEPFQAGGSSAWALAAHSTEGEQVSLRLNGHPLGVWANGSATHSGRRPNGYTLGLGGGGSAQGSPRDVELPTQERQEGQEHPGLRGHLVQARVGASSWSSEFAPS

[2] = molecular target: T2, Adenosine receptor A1 (Rattus norvegicus, UniProt P25099); test: Displacement of [3H]DPCPX from adenosine receptor A1 in Sprague-Dawley rat whole brain cell membranes after 60 mins by liquid scintillation counting
T2 sequence (P25099 whole entry): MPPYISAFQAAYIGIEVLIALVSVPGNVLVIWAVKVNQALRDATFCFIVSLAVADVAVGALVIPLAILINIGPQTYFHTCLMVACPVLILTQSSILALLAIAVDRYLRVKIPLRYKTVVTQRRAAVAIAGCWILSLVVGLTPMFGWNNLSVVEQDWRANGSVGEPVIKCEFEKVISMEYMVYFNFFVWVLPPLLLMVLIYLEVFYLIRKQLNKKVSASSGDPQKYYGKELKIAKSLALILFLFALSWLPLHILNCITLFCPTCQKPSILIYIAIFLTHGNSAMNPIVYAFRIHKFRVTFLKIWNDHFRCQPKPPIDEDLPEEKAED

[3] = tested on: brain; test: Selectivity index, ratio of Ki for adenosine receptor A2A in Sprague-Dawley rat striatal membranes to Ki for adenosine receptor A1 in Sprague-Dawley rat whole brain cell membranes; format: cell-based
[4] = molecular target: T1, Adenosine receptor A2a; test: Displacement of [3H]NECA from adenosine receptor A2A in rat striatal membranes
[5] = molecular target: T2, Adenosine receptor A1; test: Displacement of [3H]DPCPX from adenosine receptor A1 in Sprague-Dawley rat whole brain membranes after 60 mins in presence of GTP by liquid scintillation counting method; set-up: species or system Membrane

## COc1ccc(OCc2nc3c(c(=O)n(C)c(=O)n3C)n2C)cc1
[1]
  Ki: 2400 nM
[2]
  Ki: 4670 nM
[3]
  Ratio Ki: 0.5

## Cn1c(=O)c2c(nc(COc3ccc(Cl)cc3)n2C)n(C)c1=O
[1]
  Ki: 940 nM
[2]
  Ki: 5560 nM
[3]
  Ratio Ki: 0.2

## CCn1c(=O)c2c(nc(COc3ccc(C)cc3)n2C)n(CC)c1=O
[1]
  Ki: 1300 nM
[2]
  Ki: 1420 nM
[3]
  Ratio Ki: 0.9

## CCn1c(=O)c2c(nc(COc3ccc(OC)cc3)n2C)n(CC)c1=O
[4]
  Ki: 237 nM
[1]
  Ki: 237 nM
[2]
  Ki: 1220 nM

## Cn1c(=O)c2c(nc(COc3ccc(F)cc3)n2C)n(C)c1=O
[1]
  Ki: 2570 nM
[2]
  Ki: 9190 nM
[3]
  Ratio Ki: 0.3

## CCn1c(=O)c2c(ncn2C)n(CC)c1=O
[1]
  Ki: 2690 nM
[2]
  Ki: 5610 nM
[3]
  Ratio Ki: 0.5

## Cc1ccc(OCc2nc3c(c(=O)n(C)c(=O)n3C)n2C)cc1
[1]
  Ki: 3640 nM
[2]
  Ki: 6760 nM
[3]
  Ratio Ki: 0.5

## CCn1c(=O)c2c(nc(COc3ccc(F)cc3)n2C)n(CC)c1=O
[1]
  Ki: 841 nM
[2]
  Ki: 1230 nM
[3]
  Ratio Ki: 0.7

## CCn1c(=O)c2c(nc(COc3ccc(Cl)cc3)n2C)n(CC)c1=O
[1]
  Ki: 1040 nM
[2]
  Ki: 974 nM
[3]
  Ratio Ki: 1.1

## Cn1c(=O)c2c(nc(COc3ccc(Br)cc3)n2C)n(C)c1=O
[1]
  Ki: 1730 nM
[2]
  Ki: 3690 nM
[3]
  Ratio Ki: 0.5

## CCn1c(=O)c2c(nc(COc3ccccc3)n2C)n(CC)c1=O
[5]
  Ki: 892 nM

## CCn1c(=O)c2c(nc(COc3ccc(Br)cc3)n2C)n(CC)c1=O
[5]
  Ki: 267 nM
[1]
  Ki: 1360 nM
[2]
  Ki: 264 nM
